In US20230046416A1 (Soteria Biotherapeutics, Inc., priority 2019, published 2023):

System: AZ21
Test: Biolayer interferometry, Ab59 binding to immobilized AZ21
Description: Binding kinetics between BCl-2 fusion protein Ab59 and AZ-21 was assayed by biolayer interferometry. […] Curves represent measured data points on an Octet RED384.

Chain of AZ21 (P10415 1-207 C158A limits assumed): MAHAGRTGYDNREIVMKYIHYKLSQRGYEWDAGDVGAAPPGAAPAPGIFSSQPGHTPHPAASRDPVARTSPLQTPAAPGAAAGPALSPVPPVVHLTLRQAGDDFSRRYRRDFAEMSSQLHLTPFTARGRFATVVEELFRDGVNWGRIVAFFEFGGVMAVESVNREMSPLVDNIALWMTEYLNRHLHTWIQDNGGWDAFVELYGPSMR

binding to AZ21 in the presence of ABT-199 (with ABT-199, FIG. 25B): potent and reversible binding
binding to AZ21 in the absence of ABT-199 (without ABT-199, FIG. 25B): no significant binding
Substance: Ab59: heterodimeric Fc fusion protein: BCl-2 C158A linked to a human IgG1 Fc, plus a second human IgG1 Fc domain
